Measured values taken from PubChem BioAssay (NCI).
“And” between values parts separate entries of the source, which are not always exact repeats. Identical values can stand only once.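 Cultured in 96-well plates, cells were exposed to test compound for 48 hours across five concentrations. The concentration for 50% growth inhibition is given as GI50. TGI marks complete inhibition of growth.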

What was measured:
Assay in all cases: DTP human tumour cell line panel, 48 h
[1] = test system: 786-0 renal
[2] = test system: CCRF-CEM leukemia
[3] = test system: HCT-15 colon
[4] = test system: HL-60(TB) leukemia
[5] = test system: HOP-92 NSCLC
[6] = test system: KM12 colon
[7] = test system: M14 melanoma
[8] = test system: NCI-H226 lung
[9] = test system: NCI/ADR-RES ovarian
[10] = test system: OVCAR-8 ovarian
[11] = test system: RXF 393 renal
[12] = test system: SK-MEL-5 melanoma
[13] = test system: SNB-19 CNS
[14] = test system: SW-620 colon
[15] = test system: UACC-257 melanoma

Structure (SMILES)	TGI [1]	TGI [2]	TGI [3]	TGI [4]	TGI [5] [µM]	TGI [6]	TGI [7]	TGI [8] [µM]	TGI [9]	TGI [10]	TGI [11]	TGI [12]	TGI [13]	TGI [14]	TGI [15]	GI50 [6]
O=C(c1ccccc1)N1CCC(Nc2cccnc2)O1 (centres undefined)	> 100 µM	> 100 µM	> 100 µM	> 100 µM	> 100	> 100 µM	> 100 µM	> 100	> 100 µM	> 100 µM	> 100 µM	> 100 µM	> 100 µM	> 100 µM		
O=C1c2ccccc2C(=O)c2c1sc1nc3ccccc3n21	4.46 µM	5.48 µM		> 100 µM	74.1	3.91 µM	3.15 µM	21.2	4.7 µM	3.82 µM	3.31 µM	43.3 µM	4.42 µM		3.64 µM	
O=C1C2CCCCC2C(=O)N1n1c(Cc2ccccc2)n[nH]c1=O (centres undefined)	> 100 µM	> 100 µM	> 100 µM		> 100	> 100 µM	> 100 µM	> 100	> 100 µM	> 100 µM	> 100 µM	> 100 µM	> 100 µM	> 100 µM	> 100 µM	
CN(C(=O)C12C3(C(=O)O)C4C5(C(=O)O)C3C1(C(=O)O)C5C42C(=O)O)C(C)(C)C (centres undefined)	> 100 µM	> 100 µM	> 100 µM	> 100 µM	> 100	> 100 µM	> 100 µM		> 100 µM	> 100 µM	> 100 µM	> 100 µM	> 100 µM	> 100 µM	> 100 µM	
COC(OC)[C@@H]1OC[C@H](n2ccc(=O)[nH]c2=O)[C@H]1O	> 100 µM	> 100 µM	> 100 µM		> 100	> 100 µM	> 100 µM	> 100	> 100 µM		> 100 µM	> 100 µM	> 100 µM	> 100 µM	> 100 µM	
CN(C)c1ccc(C2=C([O-])c3cc(-[n+]4ccccc4)ccc3C2=O)cc1	> 100 µM	> 100 µM	> 100 µM	> 100 µM	> 100	> 100 µM		> 100	> 100 µM	> 100 µM	> 100 µM	> 100 µM	> 100 µM	> 100 µM	> 100 µM	
CC(O)/C=C/C1OC(=O)CC1Nc1ccc(C=O)cc1 (centres undefined)	> 100 µM	> 100 µM	> 100 µM		66.5	> 100 µM	41.9 µM	> 100	> 100 µM	> 100 µM	> 100 µM	33.5 µM	> 100 µM	> 100 µM	> 100 µM	
C=CCc1cccc(/C(O)=C/C(=O)/C=C/c2ccccc2Cl)c1O	> 71.6 µM	95.1 µM	> 100 µM		55.2	97 µM	> 100 µM	> 75.6	45.9 µM	25.5 µM	75.8 µM	31.7 µM	> 84 µM	90.1 µM	> 70.4 µM	
CNc1ccc(Cl)cc1C(=O)N1CCC[C@H]1CO	> 100 µM	> 100 µM	> 100 µM	> 100 µM	> 100	> 100 µM	> 100 µM	> 100	> 100 µM	> 100 µM	> 100 µM		> 100 µM	> 100 µM	> 100 µM	
C#C[C@@H](OC(=O)c1ccc([N+](=O)[O-])cc1)[C@@H]1C[C@H]2O[C@@H]([C@H](C/C=C/CC)OC(=O)c3ccc([N+](=O)[O-])cc3)C[C@H]2O1	> 100 µM	> 100 µM	> 100 µM		> 100	> 100 µM	> 100 µM	> 100	> 100 µM	> 100 µM	> 100 µM	> 100 µM	> 100 µM	> 100 µM	> 100 µM	
CCOC(=O)c1nc2ccc(C(F)(F)F)cc2nc1NCc1ccc(F)cc1	> 100 µM	> 100 µM	> 100 µM	> 100 µM	29.2	> 100 µM	> 100 µM	> 100	> 100 µM	> 100 µM	> 100 µM		> 100 µM	> 100 µM	> 100 µM	
CC(=O)OC1OC(C2c3cccc(O)c3C(=O)c3c(O)cc(CO)cc32)C(O)C(O)C1O (centres undefined)	17 µM and 16.2 µM	21.5 µM and 17.9 µM	9.33 µM and 11.2 µM	17.3 µM and 12.7 µM	9.38	4.54 µM and 4.23 µM	24.4 µM and 24.8 µM		44.7 µM and 28.1 µM	69.3 µM and > 100 µM	29.8 µM and 55.5 µM	4.26 µM and 4.09 µM	6.7 µM and 6.51 µM	10.8 µM and 19.3 µM	32.8 µM and 33.7 µM	0.811 µM and 0.17 µM
CCOC(=O)COc1cc(-c2ccccc2)nc2cc(F)ccc12	> 100 µM	> 100 µM	> 100 µM		> 100	> 100 µM	> 100 µM	> 100	> 100 µM	> 100 µM	> 100 µM	> 100 µM		> 100 µM	> 100 µM	
CC(=S)NC=C(C(N)=O)C(N)=O	> 100 µM	> 100 µM	> 100 µM	> 100 µM	> 100	> 100 µM	> 100 µM	> 100	> 100 µM	> 100 µM	> 100 µM	> 100 µM		> 100 µM	> 100 µM	
